In EP0565593B1, “REDUCING PESTICIDAL INTERACTIONS IN CROPS” (priority 1990, dated 1992):

Tested on: Corn
Assay: Greenhouse test, combination of Procedures II and III: insecticide in-furrow or in cover layer, herbicide and antidote incorporated in cover layer (Examples 1-3, 6; Tables 1-3, 6)
Type: in vivo
Details: for % Injury Corn / % Corn Injury PN 3320 / % Corn Injury PN 3377: 3 weeks; for Percent Injury Corn: 7 weeks; for corn injury safened: 0.14 kg/ha herbicide plus Insecticide No. 1, Antidote No. 1 0.42 kg/ha
[1] = Ex. 6: Antidote 1 0.14 + Herbicide 1 0.14 Kg/Ha
[2] = Ex. 6: Antidote 1 0.42 + Herbicide 1 0.14 Kg/Ha
[3] = Ex. 6: Antidote 1 0.56 + Herbicide 1 0.56 Kg/Ha
[4] = Ex. 6: Antidote 1 1.68 + Herbicide 1 0.56 Kg/Ha
[5] = Ex. 6: Insecticide 1 0.23 Kg/305m + Antidote 1 0.14 + Herbicide 1 0.14 Kg/Ha
[6] = Ex. 6: Insecticide 1 0.23 Kg/305m + Antidote 1 0.42 + Herbicide 1 0.14 Kg/Ha
[7] = Ex. 6: Insecticide 1 0.23 Kg/305m + Antidote 1 0.56 + Herbicide 1 0.56 Kg/Ha
[8] = Ex. 6: Insecticide 1 0.23 Kg/305m + Antidote 1 1.68 + Herbicide 1 0.56 Kg/Ha
[9] = Ex. 6: Insecticide 2 0.23 Kg/305m + Antidote 1 0.14 + Herbicide 1 0.14 Kg/Ha
[10] = Ex. 6: Insecticide 2 0.23 Kg/305m + Antidote 1 0.42 + Herbicide 1 0.14 Kg/Ha
[11] = Ex. 6: Insecticide 2 0.23 Kg/305m + Antidote 1 0.56 + Herbicide 1 0.56 Kg/Ha
[12] = Ex. 6: Insecticide 2 0.23 Kg/305m + Antidote 1 1.68 + Herbicide 1 0.56 Kg/Ha

Compound: CC1(C)OC(c2ccco2)CN1C(=O)C(Cl)Cl (stereo not shown) [Antidote No. 1, Oxazolidine, 3-(dichloroacetyl)-2,2-dimethyl-5-(2-furanyl)-]
- % Injury Corn (Ex. 2: Antidote 1 0.14 + Herbicide 1 0.14 Kg/Ha): 0%
- % Injury Corn (Ex. 2: Antidote 1 0.42 + Herbicide 1 0.14 Kg/Ha): 8%
- % Injury Corn (Ex. 2: Antidote 1 0.56 + Herbicide 1 0.56 Kg/Ha): 3%
- % Injury Corn (Ex. 2: Antidote 1 1.68 + Herbicide 1 0.56 Kg/Ha): 5%
- injury to corn (Ex. 2: Herbicide No. 1 0.14 kg/ha + Insecticide 1 or 2, antidote applied at 3 X the herbicide rate): less than 10%
- % Injury Corn (Ex. 2: Insecticide 1 0.11 kg/305m + Antidote 1 0.14 + Herbicide 1 0.14 Kg/Ha): 26%
- % Injury Corn (Ex. 2: Insecticide 1 0.11 kg/305m + Antidote 1 0.42 + Herbicide 1 0.14 Kg/Ha): 6%
- % Injury Corn (Ex. 2: Insecticide 1 0.11 kg/305m + Antidote 1 0.56 + Herbicide 1 0.56 Kg/Ha): 30%
- % Injury Corn (Ex. 2: Insecticide 1 0.11 kg/305m + Antidote 1 1.68 + Herbicide 1 0.56 Kg/Ha): 18%
- % Injury Corn (Ex. 2: Insecticide 1 0.23 Kg/305m + Antidote 1 0.14 + Herbicide 1 0.14 Kg/Ha): 18%
- % Injury Corn (Ex. 2: Insecticide 1 0.23 Kg/305m + Antidote 1 0.22 + Herbicide 1 0.14 + Herbicide 2 4.48 Kg/Ha): 20%
- % Injury Corn (Ex. 2: Insecticide 1 0.23 Kg/305m + Antidote 1 0.42 + Herbicide 1 0.14 Kg/Ha): 6%
- % Injury Corn (Ex. 2: Insecticide 1 0.23 Kg/305m + Antidote 1 0.56 + Herbicide 1 0.56 Kg/Ha): 33%
- % Injury Corn (Ex. 2: Insecticide 1 0.23 Kg/305m + Antidote 1 1.68 + Herbicide 1 0.56 Kg/Ha): 34%
- % Injury Corn (Ex. 2: Insecticide 2 3.36 Kg/Ha + Antidote 1 0.22 + Herbicide 1 0.14 + Herbicide 2 4.48 Kg/Ha): 29%
- % Injury Corn (Ex. 2: Insecticide 2 3.36 Kg/Ha + Antidote 1 0.22 + Herbicide 2 4.48 Kg/Ha): 19%
- % Injury Corn (Ex. 3: Antidote 1 0.14 + Herbicide 1 0.14 Kg/Ha): 3%
- % Injury Corn (Ex. 3: Antidote 1 0.22 + Herbicide 2 4.48 Kg/Ha): 13%
- % Injury Corn (Ex. 3: Antidote 1 0.42 + Herbicide 1 0.14 Kg/Ha): 3%
- % Injury Corn (Ex. 3: Antidote 1 0.56 + Herbicide 1 0.56 Kg/Ha): 8%
- % Injury Corn (Ex. 3: Antidote 1 1.68 + Herbicide 1 0.56 Kg/Ha): 3%
- corn injury (Ex. 3: Herbicide No. 1 + Insecticide 3 or 4, Antidote No. 1 at 1:1 ratio, all cases): less than 5%
- % Injury Corn (Ex. 3: Insecticide 3 (227g) + Antidote 1 0.14 + Herbicide 1 0.14 Kg/Ha): 0%
- % Injury Corn (Ex. 3: Insecticide 3 (227 g) + Antidote 1 0.22 + Herbicide 1 0.14 + Herbicide 2 4.48 Kg/Ha): 18%
- % Injury Corn (Ex. 3: Insecticide 3 (227 g) + Antidote 1 0.22 + Herbicide 2 4.48 Kg/Ha): 25%
- % Injury Corn (Ex. 3: Insecticide 3 (227g) + Antidote 1 0.42 + Herbicide 1 0.14 Kg/Ha): 20%
- % Injury Corn (Ex. 3: Insecticide 3 (227g) + Antidote 1 1.68 + Herbicide 1 0.56 Kg/Ha): 8%
- % Injury Corn (Ex. 3: Insecticide 4 (227g) + Antidote 1 0.14 + Herbicide 1 0.14 Kg/Ha): 3%
- % Injury Corn (Ex. 3: Insecticide 4 (227g) + Antidote 1 0.22 + Herbicide 1 0.14 + Herbicide 2 4.48 Kg/Ha): 48%
- % Injury Corn (Ex. 3: Insecticide 4 (227g) + Antidote 1 0.22 + Herbicide 2 4.48 Kg/Ha): 45%
- % Injury Corn (Ex. 3: Insecticide 4 (227g) + Antidote 1 0.42 + Herbicide 1 0.14 Kg/Ha): 5%
- % Injury Corn (Ex. 3: Insecticide 4 (227g) + Antidote 1 0.56 + Herbicide 1 0.56 Kg/Ha): 28%
- % Injury Corn (Ex. 3: Insecticide 4 (227g) + Antidote 1 1.68 + Herbicide 1 0.56 Kg/Ha): 5%
- % Corn Injury PN 3320 [1]: 15%
- % Corn Injury PN 3377 [1]: 15%
- % Corn Injury PN 3320 [2]: 10%
- % Corn Injury PN 3377 [2]: 0%
- % Corn Injury PN 3320 [3]: 68%
- % Corn Injury PN 3377 [3]: 0%
- % Corn Injury PN 3320 [4]: 43%
- % Corn Injury PN 3377 [4]: 0%
- % Corn Injury PN 3320 [5]: 40%
- % Corn Injury PN 3377 [5]: 18%
- % Corn Injury PN 3320 [6]: 25%
- % Corn Injury PN 3377 [6]: 3%
- % Corn Injury PN 3320 [7]: 40%
- % Corn Injury PN 3377 [7]: 35%
- % Corn Injury PN 3320 [8]: 35%
- % Corn Injury PN 3377 [8]: 35%
- % Corn Injury PN 3320 [9]: 15%
- % Corn Injury PN 3377 [9]: 0%
- % Corn Injury PN 3320 [10]: 10%
- % Corn Injury PN 3377 [10]: 13%
- % Corn Injury PN 3320 [11]: 68%
- % Corn Injury PN 3377 [11]: 10%
- % Corn Injury PN 3320 [12]: 43%
- % Corn Injury PN 3377 [12]: 28%
- Percent Injury Corn (Insecticide 1 0.23 kg/305m + Antidote 1 0.14 + Herbicide 1 0.14 Kg/Ha): 8%
- Percent Injury Corn (Insecticide 1 0.23 kg/305m + Antidote 1 0.14 Kg/Ha, no herbicide): 0%
- Percent Injury Corn (Insecticide 1 0.23 kg/305m + Antidote 1 0.56 + Herbicide 1 0.56 Kg/Ha): 25%
- Percent Injury Corn (Insecticide 1 0.23 kg/305m + Antidote 1 0.56 Kg/Ha, no herbicide): 0%
- Percent Injury Corn (Insecticide 1 0.23 kg/305m + Antidote 1 2.24 + Herbicide 1 2.24 Kg/Ha): 77%
- Percent Injury Corn (Insecticide 1 0.23 kg/305m + Antidote 1 2.24 Kg/Ha, no herbicide): 0%
- Percent Injury Corn (Insecticide 1 (H2O) (crystals scattered in-furrow) + Antidote 1 2 + Herbicide 1 2 Kg/Ha): 78%
- Percent Injury Corn (Insecticide 1 (H2O) (crystals scattered in-furrow) + Antidote 1 2 Kg/Ha): 13%
- Percent Injury Corn (Insecticide 2 3.36 kg/ha + Antidote 1 0.14 + Herbicide 1 0.14 Kg/Ha): 75%
- Percent Injury Corn (Insecticide 2 3.36 kg/ha + Antidote 1 0.14 Kg/Ha, no herbicide): 0%
- Percent Injury Corn (Insecticide 2 3.36 kg/ha + Antidote 1 0.56 + Herbicide 1 0.56 Kg/Ha): 70%
- Percent Injury Corn (Insecticide 2 3.36 kg/ha + Antidote 1 0.56 Kg/Ha, no herbicide): 0%
- Percent Injury Corn (Insecticide 2 3.36 kg/ha + Antidote 1 2.24 + Herbicide 1 2.24 Kg/Ha): 92%
- Percent Injury Corn (Insecticide 2 3.36 kg/ha + Antidote 1 2.24 Kg/Ha, no herbicide): 0%
- corn injury safened (sensitive genotype PN 3320): 74%
- corn injury safened (tolerant genotype PN 3377): 96%
